Assay results: patent publication US20230288402A1, “MOLECULES TARGETING RIBOSOMAL PROTEIN RPL35/UL29 FOR USE IN THE TREATMENT OF DISEASES, IN PARTICULAR EPIDERMOLYSIS BULLOSA (EB)” (KBHB CONSULT GMBH, priority 2020, published 2023)

Legend:
Lamb3-PTC-FF = test: In-vivo dual luciferase reporter read-out in yeast cells, Lamb3-PTC-FF reporter; assay type: cell-based; details: normalized to untreated control
Text: (§1) Luciferase read-out data are represented normalized to the individual luciferase reporter (Ren, Lamb3-FF, Lamb3-PTC-FF) read-outs in the untreated state set at 100% (normalizer); for renilla control—the untreated state—mean and standard deviation of quantifications from twelve biological replicates, each with six technical replicates (72 reads), are shown. For Lamb3-FF control—the untreated state—mean and standard deviation of quantifications from six biological replicates, each with six technical replicates (36 reads), are shown. For Lamb3-PTC control—the untreated state—mean and standard deviation of quantifications from two biological replicates, each with six technical replicates (12 reads), are shown. Quantification upon treatment with ART and ATZ, respectively, for both, Ren (216 reads) and Lamb3-FF (105 reads), is shown by combining read-out data obtained by treatment with 2, 4, and 10 μM ART and ATZ (treated), respectively, and is normalized to the respective untreated control (normalizer). For luciferase reporter read-outs of Lamb3-PTC-FF treated with 2 μM, 4 μM and 10 μM ART and 2, 4, and 10 nM ATZ, respectively, mean and standard deviation of quantification from two biological replicates for ART (12 reads) and three biological replicates for ATZ (18 reads), with six technical replicates each, are shown normalized to Lamb3-PTC-FF control.
(§2) Luciferase read-out data are represented normalized to the individual luciferase reporter (Lamb3-FF, Lamb3-PTC-FF, FF, and FF-PTC) of a respective control in the untreated state set at 100% (normalizer). Twelve biological replicates (n=12) for all detections. Normalization for treatment is shown, additional controls were run, but are not shown. Dosages: ART 2 μM, ATZ 1.6 nM and erythromycin 4 μM, respectively. Combination treatment […] are 50 nM and 0.08 nM, respectively, i.e. 40-fold and 20-fold less than individually applied compounds.
The inventors opted to first test small molecule action in the versatile yeast cell factory, employing the dual luciferase reporter system used in the original 2-SSRS (Bauer et al., 2013).

Lamb3-FF = test: In-vivo dual luciferase reporter read-out in yeast cells, Lamb3-FF reporter; assay type: cell-based; details: for protein expression level of Lamb3-FF luciferase reporter upon small molecule treatment: combined read-outs of 2, 4 and 10 μM; for increase for Lamb3-FF protein expression: not significant
Text: as §1
Obtaining evidence for drug directed manipulation of rpL35 to selectively increase full-length Lamb3-PTC expression has to be tested in functional assays. The inventors opted to first test small molecule action in the versatile yeast cell factory, employing the dual luciferase reporter system used in the original 2-SSRS (Bauer et al., 2013).

[1] = test system: renilla luciferase reporter; test: In-vivo dual luciferase reporter read-out in yeast cells, renilla luciferase reporter; assay type: cell-based; details: combined read-outs of 2, 4 and 10 μM
Text: as §1, with “control. […]” for “control.”

human rpL35 [2] = target: T1, human rpL35 (Homo sapiens, UniProt P42766); details: cited from earlier work
Lamb3PTC = test: Hela in vitro translation assays; assay type: biochemical, human
human rpL35 [3] = target: T1, human rpL35; test: NMR titration series (2D 1H,15N HSQC) of 15N rpL35-His6 with ligand; assay type: binding; design: MBP (N, cleaved yes); made in house; host or cells: E. coli BL21; details: for number of amide signals with significant chemical shift perturbations: HSQC spectrum upon ligand addition; for binding to human rpL35 by NMR titration: changes in NMR spectra in presence of small molecule
Protocol: NMR experiments were recorded at 25° C. (298K) on a 700 MHz Bruker Ascend spectrometer equipped with cryogenically cooled TCI probe. All spectra were processed using Topspin 3.5 and analyzed with CARA 1.8.4.2. (Keller R. Optimizing the Process of Nuclear Magnetic Resonance Spectrum Analysis and Computer Aided Resonance Assignment. ETH Zurich; 2004) and NMRFAM-Sparky (Lee W, Tonelli M, Markley J L. NMRFAM-SPARKY: enhanced software for biomolecular NMR spectroscopy. Bioinformatics. 2015 Apr. 15; 31(8):1325-7). Concentration of ^15N labeled rpL35-His6 ranged from 200 to 400 μM and the sample was measured in a salt tolerant susceptibility matched slot tube (Shigemi™) with total volume of 170 μl.
NMR spectroscopy is able by comparative analysis of protein vs. protein+small molecule binder to asses binding sites of the small molecule on the protein. In this initial study the affinity of rpL35 towards artesunate and atazanavir was established by a simple titration series in which the inventors have been tracking perturbations to chemical shifts and peak heights in the 2D ^1H, ^15N HSQC spectrum. Aliquots of artesunate/atazanavir were added into the solution of ^15N rpL35 of which 2D 1H, ^15N HSQC spectrum was recorded immediately upon ligand addition. Perturbations of protein chemical shifts in ^15N HSQC spectrum are indicative of changes to the chemical environment of amide groups caused by binding of a ligand to the protein target.
Following the artesunate-protein rpL35 complex titration, the inventors have recorded 3D spectra of the same sample using ^15N NOESY-HSQC, ^15N TOCSY-HSQC, HNHA pulse sequences. The inventors extracted chemical shifts of amide ^1H, ^15N, HA, HB from the above mentioned spectra, and compared measured values with the average chemical shifts of common amino acids in Biological Magnetic resonance Data Bank (BMRB; http://www.bmrb.wisc.edu). In the 3D ^1H, ^15N NOESY-HSQC the inventors focused also on the presence of water signal which can indicate if the amino group is solvent accessible. […] However, collection of the basic set of chemical shifts mentioned earlier allowed the inventors to estimate amino acid type since many of them have quite characteristic values (e. g. alanine, threonine, and glycine). 3D ^15N TOCSY-HSQC helped the inventors to differentiate between amino acid types which have similar NH chemical shifts, such as leucine, lysine, valine. […] Using this approach the inventors obtained a set of protein signals which changed their position in 2D ^1H^15N-HSQC spectrum upon interaction with the ligand (artesunate, atazanavir) and information on the most probable amino acid type. […]

FF-PTC = test: In-vivo dual luciferase reporter read-out in yeast cells, FF-PTC reporter; assay type: cell-based; details: erythromycin 4 μM; indicator of lack of specific activity
Protocol: as §2

[4] = test system: Lamb3 protein with the R635XPTC mutation; details: very high, therapeutically not applicable dose; cited from earlier work
laminin 332 = details: primary keratinocytes from three GS-JEB patients; cited from earlier work

Q: Which “increase in full-length Lamb3-PTC-FF protein expression” value (Lamb3-PTC-FF; treatment with 2 μM) does the source give for `C[C@H]1[C@H](OC(=O)CCC(=O)O)O[C@@H]2O[C@@]3(C)CC[C@H]4[C@H](C)CC[C@@H]1[C@@]24OO3` [artesunate] here?
A: Its value is 2.2 fold.

Q: What about the “protein expression level of Lamb3-FF luciferase reporter upon small molecule treatment” value (Lamb3-FF) of the same molecule?
A: The value was “no significant increase”.

Q: And the “increase for Lamb3-FF protein expression” value (Lamb3-FF; treatment with 4 μM)?
A: The value was 1,1 fold.

Q: And the “increase for Lamb3-FF protein expression” value (Lamb3-FF; treatment with 10 μM)?
A: Its value is 1.2 fold.

Q: And the “protein expression level of renilla luciferase reporter upon small molecule treatment” value [1]?
A: The value was “no significant increase”.

Q: What about the “binding to human rpL35 in biotinylation assay” value (human rpL35 [2]) of the same molecule?
A: Its value is “binder of human rpL35”.

Q: What about the Lamb3PTC expression (Lamb3PTC) of the same molecule?
A: The Lamb3PTC expression was “increase”.

Q: And the “number of amide signals with significant chemical shift perturbations” value (human rpL35 [3])?
A: The value was 10.

Q: What about the “binding to human rpL35 by NMR titration” value (human rpL35 [3]) of the same molecule?
A: The value was “bind human rpL35 protein at several possible binding pockets”.

Q: With `COC(=O)N[C@H](C(=O)N[C@@H](Cc1ccccc1)[C@@H](O)CN(Cc1ccc(-c2ccccn2)cc1)NC(=O)[C@@H](NC(=O)OC)C(C)(C)C)C(C)(C)C` [atazanavir] as the molecule, how does the “increase in full-length Lamb3-PTC-FF protein expression” value (Lamb3-PTC-FF; treatment with 2 μM) read?
A: Its value is 1.8 fold.

Q: And the “increase in full-length Lamb3-PTC-FF protein expression” value (Lamb3-PTC-FF; treatment with 4 μM)?
A: Its value is 1.9 fold.

Q: And the “increase in full-length Lamb3-PTC-FF protein expression” value (Lamb3-PTC-FF; treatment with 10 μM)?
A: Its value is 2.2 fold.

Q: What about the “protein expression level of Lamb3-FF luciferase reporter upon small molecule treatment” value (Lamb3-FF) of the same molecule?
A: Its value is “no significant increase”.

Q: What about the “protein expression level of renilla luciferase reporter upon small molecule treatment” value [1] of the same molecule?
A: The value was “no significant increase”.

Q: What about the Lamb3PTC expression (Lamb3PTC) of the same molecule?
A: Its Lamb3PTC expression is “increase”.

Q: What about the “number of amide signals with significant chemical shift perturbations” value (human rpL35 [3]) of the same molecule?
A: Its value is 5.

Q: What about the “binding to human rpL35 by NMR titration” value (human rpL35 [3]) of the same molecule?
A: Its value is “bind human rpL35 protein at several possible binding pockets”.

Q: Which “FF-PTC reporter read-out upon treatment” value (FF-PTC) does the source give for `CC[C@H]1OC(=O)[C@H](C)[C@@H](O[C@H]2C[C@@](C)(OC)[C@@H](O)[C@H](C)O2)[C@H](C)[C@@H](O[C@@H]2O[C@H](C)C[C@H](N(C)C)[C@H]2O)[C@](C)(O)C[C@@H](C)C(=O)[C@H](C)[C@@H](O)[C@]1(C)O` [erythromycin] here?
A: Its value is “increase”.

Q: With gentamicin as the molecule, how does the “Lamb3 protein expression relative to normal level” value [4] read?
A: The value was 30%.

Q: What about the “induction of functional laminin 332” value (laminin 332) of the same molecule?
A: Its value is “induced functional laminin 332”.
